Assay: Human HepG2 cell viability assay in 384 well format
Type: toxicity, cell-based
Design: dose 125 nL, time 70.5 hour; concentration not given beside the values
Details: HepG2 cells, read-out: Inhibition

Compound | cytotoxicity at 70.5 h [%]
COc1ccc(C(C)Nc2nc3c(C)nn(C)c3c(=O)n2C)cc1 (configuration not stated) | -3.89
CCn1c(NCC2CCCO2)nc2c(C)nn(C)c2c1=O (configuration not stated) | -7.98
CCCn1c(N2CCCC2)nc2c(C)nn(C)c2c1=O | -6.89
CCCn1c(NCCc2ccccc2)nc2c(C)nn(C)c2c1=O | 11.6
Cc1c2ncn(CC(=O)c3ccccc3)c(=O)c2nn1C | -3.76
CNc1[nH]nc(N)c1NC(=O)c1ccccc1 | -17.7
CCn1nc(CNC(C)(C)CO)c(-c2ccccc2)n1 | -1.62
O=C(Nc1ccccc1)c1n[nH]c(-n2cnnc2)n1 | -2.23
CCCN(c1ccccc1C(=O)O)S(=O)(=O)c1ccc2ccccc2c1 | -6.16
CS(=O)(=O)Nc1ccn(Cc2cccc(F)c2)n1 | -6.83
CCn1c(SCC(N)=O)nnc1-c1csc2c1CCCC2 | 2.39
CCS(=O)(=O)Nc1ccn(Cc2c(F)cccc2Cl)n1 | -9.46
O=S(=O)(c1ccc(F)c(F)c1)n1cc(Cl)cn1 | -6.91
Cc1sc(NC(=O)CCC(=O)O)c(C(N)=O)c1-c1ccc(Cl)cc1Cl | -1.16
CCCNC(=O)NC(C)c1ccccn1 (configuration not stated) | -11.1
CS(=O)(=O)Nc1ccn(Cc2ccc(Br)cc2)n1 | -8.91
CCCN1CCC(NC(=O)c2csc(C)c2-c2ccc(C)cc2)CC1 | -0.127
Cc1cccc(-n2nnnc2C2(NCc3ccco3)CCCCC2)c1 | -3.38
Cc1nc(N2CCCC2)ncc1-c1cc(O)nc(N2CCOCC2)n1 | -4.64

Compound | cytotoxicity at 70.5 h [%]
COc1cc2cc(C(=O)NCC(=O)O)n(C)c2c(OC)c1OC | 31.9
CC(=O)N1CCN([C@@H]2CN(C(=O)c3ccccc3)C[C@H]2O)CC1 | -5.08
CC(=O)N1CCN([C@@H]2CN(C(=O)c3ccccc3C)C[C@H]2O)CC1 | -3.99
Cc1ccc(Nc2nccc(C3CCN(C(=O)CO)C3)n2)nc1 (configuration not stated) | -11.2
CNc1cc(C2CCCN(C(=O)c3ccc(=O)[nH]n3)C2)ccn1 (configuration not stated) | -0.0309
CC(=O)N1CCC(Cc2cnc(-c3c(C)nn(C)c3C)cn2)CC1 | -0.949
CN(C)S(=O)(=O)N1CCC(C)(c2ncc(C(N)=O)s2)CC1 | -5.66
c1ccc(CCN2CCCC2c2ccnc(Nc3cnccn3)n2)cc1 (configuration not stated) | -3.41
Cc1cc(O)nc(C2CCCN(CCO)C2)n1 (configuration not stated) | -1.84
Cc1cc(O)nc(C2CCCNC2)n1 (configuration not stated) | -3.99
COc1ccc(-c2cc(C3CCNCC3)ccn2)cc1 | -4.77
O=C(c1cnc2ccccc2c1)N1CCC2(CCN2c2ncccn2)C1 (configuration not stated) | 2.76
Cc1nc(CN2C(=O)COC3(CCN(C)CC3)C2C)cs1 (configuration not stated) | 4.23
O=C(c1ccccc1)N1CCC2(CCCN2c2ncccn2)CC1 | 3.93
Cc1cccc(C(=O)N2C[C@@H]3COC[C@@H](CC(=O)N4CCCC4)[C@@H]3C2)n1 | 4.3
O=C1COC2(CCN(Cc3nccs3)CC2)CN1c1ccccc1 | 5.28
Cn1cccc1C(=O)N1CC[C@@H]2[C@@H]1CC(=O)N2CCN1CCOCC1 | -4.61
CN(C)C(=O)c1nn(C)c2c1CN(Cc1ccc(F)cc1)C2 | -6.32
CS(=O)(=O)NCc1cnc2n1CCN(Cc1ccoc1)CC2 | -9.11

Compound | cytotoxicity at 70.5 h [%]
Cc1csc(CN2CC[C@H]3C[C@H](c4nc(C)no4)O[C@@H]3C2)n1 | -10.4
Cc1nc(CO[C@@H]2CN(Cc3nccs3)[C@@H]3COC[C@@H]32)cs1 | -6.11
O=C1C[C@H]2[C@@H](CCN2C(=O)c2ccoc2)N1CCN1CCOCC1 | -7.58
COCc1nn(C(C)C)c2c1CCN(Cc1ccoc1)C2 | -6.52
CS(=O)(=O)N1CCC2(CCN(C(=O)c3cccnc3)CC2)C1 | -7.54
COCc1nn(C(C)C)c2c1CCN(Cc1nccs1)C2 | 12.2
COCCN1CCC(c2nc3ccc(-c4ccccc4)cn3n2)CC1 | 1.72
CN1CCC(c2nc3ccc(-c4ccccc4)cn3n2)CC1 | -3.45
O=C(N1CCCC1)N1CCC[C@]2(C[C@@H](Oc3ncccc3F)CO2)C1 | -4.8
O=C(c1ccnnc1)N1CC[C@]2(C[C@H](Oc3ncccc3F)CO2)C1 | -5.53
Cn1cc(CN2Cc3c(cnn3C)C(COCC3CC3)C2)cn1 (configuration not stated) | 26
c1cc(CN2CCc3ncc(CN4CCOCC4)n3CC2)cs1 | 16.8
O=C(c1cscn1)N1CCC2(CN(Cc3ccncc3)C2)C1 | -9.93
Cc1nnc(N2CCCC3(CN(Cc4nccs4)CCO3)C2)o1 (configuration not stated) | 34.9
c1cc(-c2ccc3nc(C4CCN(CC5CC5)CC4)nn3c2)ccn1 | 3.64
c1cncc(O[C@H]2CC[C@H]3[C@H]2OCCN3C2CCCC2)c1 | -1.6
O=C(Cc1ccccn1)N1CC[C@]2(C[C@@H](Oc3ncccc3F)CO2)C1 | 2.46
COCCN1C[C@@H]2[C@@H](OC)CCN(Cc3cccs3)[C@@H]2C1 | -1.71
Cn1cc(CN2CCC3(CCCN3Cc3cccnc3)CC2)cn1 | -3.83
